Assay [1] addresses T1, IDO1 (Homo sapiens (Human), UniProt P14902). The experiment in a line: IDO1 Human Whole Blood Assay. The following applies: LPS and IFNγ, 18 h, kynurenine by LC/MS/MS. The assay is classed as cell-based. How it is done:
Compounds to be tested were serially diluted in ten 3-fold steps in DMSO starting from 10 mM. 3 μL of compound dilutions or DMSO alone were then dispensed from the dilution plate into a polypropylene 96-well assay plate containing 97 μL of RPMI using an Echo 555 acoustic liquid handler (Labcyte). LPS and IFNγ was prepared in RPMI to a 10λ of final conc. (1000 ng/mL), final concentration is 100 ng/mL.
Human whole blood was drawn in sodium heparin coated tubes from healthy internal donors. Two hundred forty μL of blood was transferred to each of the wells of a v-bottom 96 well plate. Thirty μL of compound was transferred from intermediate dilution plate, and incubated for 15 min. […] from stimulants was then transferred to blood and mixed thoroughly. Plate was covered with breathable membrane and incubated at 37° C. for overnight (18 h).
On day 2 isotope labeled standard of kynurenine and tryptophan was made in water at 10× concentration and 30 μL was added to the blood at 3 μM final concentration. The assay plates were centrifuged at 300×G for 10 min with no brake to separate plasma from red blood cells. Sixty μL of plasma samples was removed without disturbing red blood cells.
Plasma was diluted with RPMI in 1:1 ratio and proteins were precipitated out with two volume of Acetonitrile. The plates was centrifuged at 4000×G for 60 min. Twenty μL of supernatant was carefully transferred to a 384 well plate contain 40 μL of 0.1% formic acid in water and analyzed by LC/MS/MS.
LC/MS/MS analyses were performed using Thermo Fisher's LX4-TSQ Quantum Ultra system. This system consists of four Agilent binary high-performance liquid chromatography (HPLC) pumps and a TSQ Quantum Ultra triple quadruple MS/MS instrument. For each sample, 5 μL were injected onto an Atlantis T3 column (2.1 mm×150 mm, 3 μm particle size) from Waters. The mobile phase gradient pumped at 0.8 mL/min was used to elute the analytes from the column at 25° C. The elution started at 0% B increasing linearly to 25% B at 6.5 min, holding at 25% for 1 min, re-equilibrating to 10 min. Mobile phase A consisted of 0.1% formic acid in water. Mobile phase B consisted of 0.1% of formic acid in acetonitrile. Data was acquired in positive mode using a HESI interface. The operational parameters for the TSQ Quantum Ultra instrument were a spray voltage of 4000 V, capillary temperature of 380° C., vaporizer temperature 400° C., shealth gas 60 arbitrary units, Aux gas 20 arbitrary units, tube lens 85 and collision gas 1.2 mTorr. SRM chromatograms of kynurenine (QI: 209.2>Q3:94.0) and internal standard (Q1: 215.3>Q3:98.2) were collected for 90 sec. The peak area was integrated by Xcalibur Quan software. The ratios between the kynurenine generated in the reaction and 2D6-Kynurenine spiked-in internal standard were used to generate percentage inhibition and IC50 values. Compounds were titrated and IC50's were calculated by 4 parameter sigmoidal curve fitting formula.
Target sequence in this assay (P14902 whole entry): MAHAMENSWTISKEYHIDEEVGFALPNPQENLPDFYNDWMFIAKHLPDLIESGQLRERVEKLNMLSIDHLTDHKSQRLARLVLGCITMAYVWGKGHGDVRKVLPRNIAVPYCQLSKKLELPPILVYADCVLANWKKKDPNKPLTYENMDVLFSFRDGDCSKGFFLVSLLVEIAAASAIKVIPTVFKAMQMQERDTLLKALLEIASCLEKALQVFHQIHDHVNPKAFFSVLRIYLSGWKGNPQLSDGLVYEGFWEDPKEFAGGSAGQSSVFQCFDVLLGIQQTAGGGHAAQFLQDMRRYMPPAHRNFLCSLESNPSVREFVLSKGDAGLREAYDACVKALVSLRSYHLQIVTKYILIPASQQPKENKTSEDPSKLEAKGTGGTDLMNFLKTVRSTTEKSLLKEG

The target of assay [2] is T1, IDO1. The experiment in a line: IDO1 Enzyme Assay. The assay is classed as biochemical. The following applies: HIS-tagged recombinant IDO1, fluorescence readout. The procedure, abridged: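 Purified His-tagged human IDO1 (40 nM final, E. coli-expressed) was preincubated 30 min at RT with compound in 50 mM Tris pH 7.0 with methylene blue, ascorbate and catalase. Reaction ran 60 min at RT after adding tryptophan (400 μM stock), was quenched with methyl isonipecotate and heated, then read by fluorescence (ex 400, em 510 nm); IC50 via four-parameter logistic fit.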
Target sequence in this assay (P14902 whole entry, species assumed): as the sequence (P14902 whole entry) above

Assay [3] concerns the target T1, IDO1. The experiment in a line: IDO1 Cellular Assay in Hela Cells Stimulated with IFNγ. Format: cell-based. The following applies: about 48 hours, read-out: IDO1 HELA Cell Assay, IC50. The procedure, abridged: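 HeLa cells (2×10^5 cells/ml) with 300 uM L-tryptophan and 100 ng/mL IFNγ exposed to 10-point 3-fold compound dilutions for about 48 h at 37° C. Kynurenine detected by fluorescence (ex 400, em 510 nm) after overnight methyl isonipecotate. Signal normalised to non-IFNγ and DMSO wells; IC50 by four-parameter logistic fit.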
Target sequence in this assay (P14902 whole entry): as above

Consider two molecules from US10927086B2, “Substituted sulfoximine compounds as indoleamine 2,3-dioxygenase (IDO) inhibitors” (Merck Sharp & Dohme Corp., priority 2017, dated 2021).

Consider `CS(=O)(CCNc1nonc1/C(=N/O)N[C@H]1Cc2ccc(F)cc21)=NC(N)=O` (stereo partly drawn) [Example 16, 4-((2-(N-carbamoyl-S-methylsulfonimidoyl)ethyl)amino)-N-((S)-4-fluorobicyclo[4.2.0]octa-1,3,5-trien-7-yl)-N′-hydroxy-1,2,5-oxadiazole-3-carboximidamide], for which the concentration for half-maximal inhibition (IC50) against IDO1 [1] turned out to be 843 nM; at IDO1 [2] it was 55.1 nM; at IDO1 [3], 69.2 nM.
For `CS(=O)(CCNc1nonc1/C(=N/O)N[C@H]1Cc2ccc(F)cc21)=NC#N` (stereo partly drawn) [Example 17, 4-((2-(N-cyano-S-methylsulfonimidoyl)ethyl)amino)-N-((S)-4-fluorobicyclo[4.2.0]octa-1(6),2,4-trien-7-yl)-N′-hydroxy-1,2,5-oxadiazole-3-carboximidamide], in that order: 173 nM, 64.7 nM and 53.7 nM.

By IC50 is commonly meant the concentration that gives 50% inhibition.
